Reference: PubChem BioAssay AID1963981 (Molecular Pharmacology Branch, DTP, NCI, 2024)

System: 354836-022-R-J1-PDC multicell spheroid viability
Test: Anticancer human tumor 354836-022-R-J1-PDC patient-derived head and neck squamous cell carcinoma cell line growth inhibition [PI3K]
Details: for viability, T/C: stronger effect = lower value; active = viability on the fitted dose curve at most 10% of control; inactive = the rest
How it was run: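 Combination activity was assessed by viability in multicellular tumor spheroids carrying HUVEC and MSC components. Agents were tested with PI3K inhibitors from a Cmax-based top dose (or 10 microM) downward in half-log increments.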

[1] = curve of first compound, second compound 0.00316 µM
[2] = curve of first compound, second compound 0.01 µM
[3] = curve of first compound, second compound 0.0316 µM
[4] = curve of first compound, second compound 0.1 µM
[5] = curve of first compound, second compound 0.316 µM
[6] = curve of first compound, second compound 1 µM
[7] = second compound 0.00316 µM, first compound 0.0316 µM
[8] = second compound 0.00316 µM, first compound 0.1 µM
[9] = second compound 0.00316 µM, first compound 0.316 µM
[10] = second compound 0.00316 µM, first compound 1 µM
[11] = second compound 0.00316 µM, first compound 3.16 µM
[12] = second compound 0.00316 µM, first compound 10 µM
[13] = second compound 0.01 µM, first compound 0.0316 µM
[14] = second compound 0.01 µM, first compound 0.1 µM
[15] = second compound 0.01 µM, first compound 0.316 µM
[16] = second compound 0.01 µM, first compound 1 µM
[17] = second compound 0.01 µM, first compound 3.16 µM
[18] = second compound 0.01 µM, first compound 10 µM
[19] = second compound 0.0316 µM, first compound 0.0316 µM
[20] = second compound 0.0316 µM, first compound 0.1 µM
[21] = second compound 0.0316 µM, first compound 0.316 µM
[22] = second compound 0.0316 µM, first compound 1 µM
[23] = second compound 0.0316 µM, first compound 3.16 µM
[24] = second compound 0.0316 µM, first compound 10 µM
[25] = second compound 0.1 µM, first compound 0.0316 µM
[26] = second compound 0.1 µM, first compound 0.1 µM
[27] = second compound 0.1 µM, first compound 0.316 µM
[28] = second compound 0.1 µM, first compound 1 µM
[29] = second compound 0.1 µM, first compound 3.16 µM
[30] = second compound 0.1 µM, first compound 10 µM
[31] = second compound 0.316 µM, first compound 0.0316 µM
[32] = second compound 0.316 µM, first compound 0.1 µM
[33] = second compound 0.316 µM, first compound 0.316 µM
[34] = second compound 0.316 µM, first compound 1 µM
[35] = second compound 0.316 µM, first compound 3.16 µM
[36] = second compound 0.316 µM, first compound 10 µM
[37] = second compound 1 µM, first compound 0.0316 µM
[38] = second compound 1 µM, first compound 0.1 µM
[39] = second compound 1 µM, first compound 0.316 µM
[40] = second compound 1 µM, first compound 1 µM
[41] = second compound 1 µM, first compound 3.16 µM
[42] = second compound 1 µM, first compound 10 µM
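Also: spheroids exposed to agents for seven days before the viability read.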

Cn1cnc2c(F)c(Nc3ccc(Br)cc3Cl)c(C(=O)NOCCO)cc21 + COc1c(OCCCN2CCOCC2)ccc2c3n(c(=NC(=O)c4cnc(N)nc4)nc12)CCN3
inactive: viability, T/C (second compound 0.00316 µM, first compound 0.00949 µM) 107% | viability, T/C (second compound 0.00316 µM, first compound 0.03 µM) 86.2% | viability, T/C (second compound 0.00316 µM, first compound 0.0949 µM) 89.4% | viability, T/C (second compound 0.00316 µM, first compound 0.3 µM) 96.6% | viability, T/C (second compound 0.00316 µM, first compound 0.949 µM) 75.5% | viability, T/C (second compound 0.00316 µM, first compound 3 µM) 58% | viability, T/C (second compound 0.01 µM, first compound 0.00949 µM) 83.3% | viability, T/C (second compound 0.01 µM, first compound 0.03 µM) 84.6% | viability, T/C (second compound 0.01 µM, first compound 0.0949 µM) 78.3% | viability, T/C (second compound 0.01 µM, first compound 0.3 µM) 89.2% | viability, T/C (second compound 0.01 µM, first compound 0.949 µM) 75.4% | viability, T/C (second compound 0.01 µM, first compound 3 µM) 60.7% | viability, T/C (second compound 0.0316 µM, first compound 0.00949 µM) 81.2% | viability, T/C (second compound 0.0316 µM, first compound 0.03 µM) 80% | viability, T/C (second compound 0.0316 µM, first compound 0.0949 µM) 67.8% | viability, T/C (second compound 0.0316 µM, first compound 0.3 µM) 66.9% | viability, T/C (second compound 0.0316 µM, first compound 0.949 µM) 66.3% | viability, T/C (second compound 0.0316 µM, first compound 3 µM) 41% | viability, T/C (second compound 0.1 µM, first compound 0.00949 µM) 43.8% | viability, T/C (second compound 0.1 µM, first compound 0.03 µM) 48.6% | viability, T/C (second compound 0.1 µM, first compound 0.0949 µM) 38.3% | viability, T/C (second compound 0.1 µM, first compound 0.3 µM) 41.9% | viability, T/C (second compound 0.1 µM, first compound 0.949 µM) 31.2% | viability, T/C (second compound 0.1 µM, first compound 3 µM) 15.2% | viability, T/C (second compound 0.316 µM, first compound 0.00949 µM) 12.7% | viability, T/C (second compound 0.316 µM, first compound 0.03 µM) 9.02%
active: viability, T/C (second compound 0.316 µM, first compound 0.0949 µM) 11% | viability, T/C (second compound 0.316 µM, first compound 0.3 µM) 9.87% | viability, T/C (second compound 0.316 µM, first compound 0.949 µM) 5.57% | viability, T/C (second compound 0.316 µM, first compound 3 µM) 1.48% | viability, T/C (second compound 1 µM, first compound 0.00949 µM) 1.58% | viability, T/C (second compound 1 µM, first compound 0.03 µM) 1.2% | viability, T/C (second compound 1 µM, first compound 0.0949 µM) 1.03% | viability, T/C (second compound 1 µM, first compound 0.3 µM) 1.25% | viability, T/C (second compound 1 µM, first compound 0.949 µM) 0.64% | viability, T/C (second compound 1 µM, first compound 3 µM) 0.57%
< 0.00949 µM: IC50 [4] | IC50 [5] | IC50 [6]
1.86 µM: IC50 [3]
> 3 µM: IC50 [1] | IC50 [2]

CC1(C)CCC(CN2CCN(c3ccc(C(=O)NS(=O)(=O)c4ccc(NCC5CCOCC5)c([N+](=O)[O-])c4)c(Oc4cnc5[nH]ccc5c4)c3)CC2)=C(c2ccc(Cl)cc2)C1 + CC(Nc1ccc2c(c1)OCCn1cc(N3C(=O)OCC3C(F)F)nc1-2)C(N)=O
4.25 µM: IC50 [4]
2.32 µM: IC50 [6]
4 µM: IC50 [2]
4.39 µM: IC50 [1]
active: viability, T/C [12] 8.4% | viability, T/C [24] 8.28%
3.5 µM: IC50 [3]
3.35 µM: IC50 [5]
inactive: viability, T/C [7] 96.5% | viability, T/C [8] 96.9% | viability, T/C [9] 87.7% | viability, T/C [10] 70.5% | viability, T/C [11] 74.6% | viability, T/C [13] 106% | viability, T/C [14] 91% | viability, T/C [15] 95.2% | viability, T/C [16] 81.1% | viability, T/C [17] 62.8% | viability, T/C [18] 9.3% | viability, T/C [19] 89.1% | viability, T/C [20] 103% | viability, T/C [21] 92.3% | viability, T/C [22] 99.5% | viability, T/C [23] 54% | viability, T/C [25] 81.4% | viability, T/C [26] 81.6% | viability, T/C [27] 94.2% | viability, T/C [28] 85.5% | viability, T/C [29] 63.4% | viability, T/C [30] 11.4% | viability, T/C [31] 71% | viability, T/C [32] 69.2% | viability, T/C [33] 72.8% | viability, T/C [34] 69.8% | viability, T/C [35] 52% | viability, T/C [36] 10.8% | viability, T/C [37] 62% | viability, T/C [38] 56.2% | viability, T/C [39] 50.2% | viability, T/C [40] 64.7% | viability, T/C [41] 47% | viability, T/C [42] 10.2%

Cn1ncnc1[C@H]1c2n[nH]c(=O)c3cc(F)cc(c23)N[C@@H]1c1ccc(F)cc1
> 0.1 µM: IC50 (curve of compound)
inactive: viability, T/C (compound 0.000316 µM) 101% [middle of 4 runs] | viability, T/C (compound 0.001 µM) 100% [middle of 4 runs] | viability, T/C (compound 0.00316 µM) 98.7% [middle of 4 runs] | viability, T/C (compound 0.01 µM) 92.5% [middle of 4 runs] | viability, T/C (compound 0.0316 µM) 96.4% [middle of 4 runs] | viability, T/C (compound 0.1 µM) 92.1% [middle of 4 runs]

Cn1nccc1Nc1nccc(-c2ccn(C(CO)c3ccc(Cl)c(F)c3)c(=O)c2)n1 (stereo not drawn) + CC(Nc1ccc2c(c1)OCCn1cc(N3C(=O)OCC3C(F)F)nc1-2)C(N)=O
> 10 µM: IC50 [1] | IC50 [2] | IC50 [3] | IC50 [4] | IC50 [5] | IC50 [6]
inactive: viability, T/C [7] 91.2% | viability, T/C [8] 86.8% | viability, T/C [9] 112% | viability, T/C [10] 92.6% | viability, T/C [11] 93.5% | viability, T/C [12] 88.1% | viability, T/C [13] 105% | viability, T/C [14] 92.5% | viability, T/C [15] 101% | viability, T/C [16] 95.1% | viability, T/C [17] 101% | viability, T/C [18] 88.5% | viability, T/C [19] 103% | viability, T/C [20] 92.4% | viability, T/C [21] 88.7% | viability, T/C [22] 88.6% | viability, T/C [23] 127% | viability, T/C [24] 98.2% | viability, T/C [25] 74.2% | viability, T/C [26] 100% | viability, T/C [27] 94.6% | viability, T/C [28] 88.7% | viability, T/C [29] 100% | viability, T/C [30] 98.4% | viability, T/C [31] 59.9% | viability, T/C [32] 73.3% | viability, T/C [33] 75.2% | viability, T/C [34] 72% | viability, T/C [35] 71.5% | viability, T/C [36] 71.8% | viability, T/C [37] 58.8% | viability, T/C [38] 50.1% | viability, T/C [39] 55.4% | viability, T/C [40] 62.4% | viability, T/C [41] 61.4% | viability, T/C [42] 41.4%
